For one compound, control of disease results are on record in patent publication US7511151B2 (priority 2002, dated 2009).

The assay relates to Erysiphe graminis f. sp. hordei. As to conditions: in vivo.

Compound `CC#CC(C)(C)NC(=O)C(OCC)Oc1cncc(Cl)c1` (stereo not shown) [1 (1), 2-(5-chloropyridyl-3-oxy)-2-(ethoxy)-N-(2-methylpent-3-yn-2-yl) acetamide] gave a control of disease of over 60%.
